The text below walks through data of ChEMBL document CHEMBL1201862, “PubChem BioAssay data set” (2004).

Broadly, the IC50 is the concentration that inhibits the measured activity by half. The term AC50 denotes the midpoint of the concentration-response curve, whichever way the signal moves. By GI50 is commonly meant the concentration giving 50% growth inhibition. Usually CC50 stands for the concentration at which the toxic effect on the cells reaches its halfway point.

The target of experiment [1] is T1, Runt-related transcription factor 1/Core-binding factor subunit beta (Homo sapiens, UniProt Q01196+Q13951). Put plainly: inhibitors of RUNX1 Runt–CBFb-SMMHC binding, primary screen, biochemical, FRET, Cerulean-Runt, Venus-CBFb-SMMHC, uHTS (AID 1434).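 Also: partner is the CBFb-SMMHC leukemia fusion protein rather than wild-type CBFb.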 The experiment is classed as protein assay.
The target in experiment [2] is T1, Runt-related transcription factor 1/Core-binding factor subunit beta. Put plainly: inhibitors of RUNX1 Runt–CBFb-SMMHC binding, biochemical, TR-FRET (AID 1438). The experiment is classed as protein assay. On the technique in general: TR-FRET usually uses a lanthanide donor and a delayed reading to cut background.
The nature of experiment [3]: cells. As to conditions: A549.
A short description of experiment [4]: cells. As to conditions: HEK293.
In experiment [5] the target is Heat shock protein HSP 90-alpha (Homo sapiens, UniProt P07900). Put plainly: Luminescence-based dose response biochemical high throughput screening assay for inhibitors of the Heat Shock Protein 90 (HSP90). [Related pubchem assays: 1831 (Summary AID.), 1846 (Confirmation screen.), 1789 (Primary screen.)].
The nature of experiment [6]: Single fluorophore orthopox expression reporter, late gene expression Measured in Cell-Based and Microorganism Combination System Using Plate Reader - 2142-08_Inhibitor_Dose_DryPowder_Activity. It counts as functional.
A short description of experiment [7]: inhibitors of orthopox intermediate gene expression, dose response, cell-based, single fluorophore reporter, dry powder (AID 1117271). The experiment is classed as functional.
The nature of experiment [8]: A549 cell cytotoxicity, dose response, CellTiter-Glo luminescence, dry powder, set 17 (AID 1117284). The experiment is classed as functional, cell-based. For orientation: Cellular ATP, detected with luciferase, serves as a proxy for viable cell number.
The nature of experiment [9]: Orthopox viral replication plaque formation Measured in Cell-Based and Microorganism Combination System Using Imaging - 2142-05_Inhibitor_Dose_DryPowder_Activity. The experiment is classed as functional.
Experiment [10] in a line: TB: CFU replicating Measured in Microorganism System Using Imaging - 7108-05_Inhibitor_Dose_DryPowder_Activity_Set2. The experiment is classed as functional.
A short description of experiment [11]: cytotoxicity toward HT-29 cells – cell-based, CellTiter-Glo luminescence, IC50, dose response (AID 1117330). The experiment is classed as functional.
The nature of experiment [12]: SNU-C1 cell viability reduction, dose response, CellTiter-Glo luminescence (AID 1117323). The experiment is classed as functional, cell-based.
Another experiment has as its system P388. The experiment can be described thus: cells. The experiment is classed as functional. As to conditions: Mus musculus.
Experiment [13] in a line: RKO cell viability reduction, dose response, CellTiter-Glo luminescence (AID 1117322). The experiment is classed as functional.
The nature of experiment [14]: Concentration-dependent survival of SW480 colon cancer line, luminescence detection with CellTiter-Glo, half-maximal inhibitory concentration (AID 1117338). The experiment is classed as functional.
The nature of experiment [15]: cytotoxicity toward HCT116 cells – cell-based, CellTiter-Glo luminescence, IC50, dose response (AID 1117332). The experiment is classed as functional. As to conditions: HCT-116.
A short description of experiment [16]: cytotoxicity toward Colo320 cells – cell-based, CellTiter-Glo luminescence, IC50, dose response (AID 1117334). The experiment is classed as functional. As to conditions: COLO 320.
A short description of experiment [17]: HCT116 cell viability decrease, GSK3B pretreatment – CellTiter-Glo, IC50, dose response (AID 1117339). The experiment is classed as functional. As to conditions: HCT-116.
Experiment [18] in a line: CellTiter-Glo luminescent dose response of DLD-1 viability loss (AID 1117352). The experiment is classed as functional.
Another experiment has as its system P388/ADR. Put plainly: cells. The experiment is classed as functional. The conditions noted are these: Mus musculus.
Experiment [19] can be described thus: Vero cell cytotoxicity, dose response, cytotoxicity control for Vif-APOBEC3G degradation inhibitor project, Vero cells (AID 1117358). As to conditions: Human immunodeficiency virus 1, Vero. The experiment is classed as functional.
The nature of experiment [20]: A549 cell cytotoxicity, dose response, cytotoxicity control, plate reader, dry powder, set 6 (AID 743312). The experiment is classed as functional, cell-based.
Experiment [21] can be described thus: cells. As to conditions: HEK293. The source holds these as a separate data set.
The target in experiment [22] is Disintegrin and metalloproteinase domain-containing protein 17 (Homo sapiens, UniProt P78536). Put plainly: ADAM17 protease inhibitors, dose response, counter-screen for ADAM10 exosite inhibitor project, biochemical, quenched FRET substrate (AID 743253). (The purpose of a counterscreen is to sort out artefacts and off-target activity.)
The nature of experiment [23]: ADAM10 inhibitors, peptide cleavage, dose response, biochemical, QFRET (AID 743254).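 Also: ADAM10 enzyme with the DM2 quenched FRET peptide as substrate; EDANS fluorescence gain as the protease cuts the substrate; inhibitor potency against ADAM10 proteolytic activity.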

The structures appear in SMILES notation. Activity calls are given as the source filed them. Some results are limits rather than exact numbers.

T1 sequence (Q01196 whole entry, the tested form may be a part): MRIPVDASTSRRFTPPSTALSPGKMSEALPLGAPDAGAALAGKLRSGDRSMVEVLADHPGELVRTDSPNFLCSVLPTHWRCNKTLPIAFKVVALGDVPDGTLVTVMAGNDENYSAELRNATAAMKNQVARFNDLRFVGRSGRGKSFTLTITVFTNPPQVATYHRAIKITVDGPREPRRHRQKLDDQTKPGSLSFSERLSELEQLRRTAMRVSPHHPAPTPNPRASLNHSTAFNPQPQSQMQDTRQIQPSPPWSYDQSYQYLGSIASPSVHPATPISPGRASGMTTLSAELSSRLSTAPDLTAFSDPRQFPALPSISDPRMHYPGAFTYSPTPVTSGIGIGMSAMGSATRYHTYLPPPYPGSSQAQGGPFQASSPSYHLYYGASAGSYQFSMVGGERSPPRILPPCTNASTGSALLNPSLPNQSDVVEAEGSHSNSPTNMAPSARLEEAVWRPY
T1 sequence (Q13951 whole entry, the tested form may be a part): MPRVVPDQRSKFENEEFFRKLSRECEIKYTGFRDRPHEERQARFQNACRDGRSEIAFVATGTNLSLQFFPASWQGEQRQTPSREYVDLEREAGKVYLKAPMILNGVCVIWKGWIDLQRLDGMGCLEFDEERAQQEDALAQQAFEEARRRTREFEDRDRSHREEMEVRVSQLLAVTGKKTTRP
Sequence of Disintegrin and metalloproteinase domain-containing protein 17 (P78536 whole entry, the tested form may be a part): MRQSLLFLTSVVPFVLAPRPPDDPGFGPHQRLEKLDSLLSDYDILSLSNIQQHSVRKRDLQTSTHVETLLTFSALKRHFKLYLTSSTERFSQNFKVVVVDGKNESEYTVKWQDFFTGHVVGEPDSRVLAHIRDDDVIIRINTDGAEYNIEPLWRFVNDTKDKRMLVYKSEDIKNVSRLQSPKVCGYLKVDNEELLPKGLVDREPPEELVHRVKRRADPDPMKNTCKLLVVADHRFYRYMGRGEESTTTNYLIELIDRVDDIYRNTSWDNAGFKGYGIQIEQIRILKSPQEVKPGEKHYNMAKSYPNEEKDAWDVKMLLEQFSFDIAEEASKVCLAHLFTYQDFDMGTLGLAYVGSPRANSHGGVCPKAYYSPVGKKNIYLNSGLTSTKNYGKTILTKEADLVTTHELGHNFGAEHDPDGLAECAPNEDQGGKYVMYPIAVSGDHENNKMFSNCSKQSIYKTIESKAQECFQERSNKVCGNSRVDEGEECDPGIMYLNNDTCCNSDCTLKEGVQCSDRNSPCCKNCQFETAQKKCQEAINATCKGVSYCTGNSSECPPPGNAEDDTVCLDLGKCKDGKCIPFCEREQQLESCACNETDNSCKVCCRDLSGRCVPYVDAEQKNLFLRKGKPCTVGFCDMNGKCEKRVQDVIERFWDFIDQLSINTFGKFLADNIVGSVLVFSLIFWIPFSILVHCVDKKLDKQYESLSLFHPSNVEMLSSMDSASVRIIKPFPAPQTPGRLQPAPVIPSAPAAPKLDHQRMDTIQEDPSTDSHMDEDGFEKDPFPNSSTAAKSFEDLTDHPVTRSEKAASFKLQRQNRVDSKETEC

With `O=c1[nH]c(=O)c2nc(-c3ccc(Cl)cc3)cnc2[nH]1`, the IC50 in experiment [1] was 0.643 µM (active); in experiment [2], > 100 µM (inactive). Besides, the AC50 in the experiment “cells [3]” and in the experiment “cells [4]” was > 52 µM (inactive) throughout.
For the compound `COC(=O)c1ccccc1OCCCOc1ccc(C=O)cc1OC`, the IC50 in experiment [5] was 0.314 µM (active).
In the case of `C[C@@H](O)C#Cc1ccc2c(c1)O[C@@H](CN(C)Cc1ccc(-c3ccccc3Cl)cc1)[C@@H](C)CN([C@@H](C)CO)S2(=O)=O`, the AC50 in experiment [6] is 1.18 µM (active); in [7], 1.43 µM (active); in experiment [8], > 52 µM (inactive); in [9], 0.601 µM (active).
Turning to `Cn1c(NC(=O)c2ccccc2F)nc2ccccc21`, the AbsAC90 in experiment [10] came out at 128.74 µM.
In the case of `CCCCCCCCCCCCCCCCOP(=O)([O-])OCC[N+](C)(C)C` [MILTEFOSINE], the IC50 in experiment [11] is 1.96 µM (active); in experiment [12] it was 0.965 µM (active); in [13], 0.437 µM (active); in experiment [14] it was 0.478 µM (active); in [15], 3.39 µM (active); in experiment [16] it was 1.49 µM (active). The figures for the IC50 in experiment [17] and in experiment [18] were 1.48 µM (active) and 1.23 µM (active), respectively. The results for the GI50 with P388 and in the experiment on P388/ADR were 21.2 µM (inactive) and 35.4 µM (inactive), respectively.
In the case of `Cc1ccc(S(=O)(=O)NCCCOC(=O)Nc2ccncc2)cc1`, the CC50 in [19] is > 40 µM (active).
Regarding `CC(C)c1ccccc1NCCn1c(=S)[nH]c2ccccc21`, the AC50 in experiment [20] is 21.1 µM (active); in the experiment “cells [21]”, 27.5 µM (active).
Regarding `O=C(NC(Cc1c[nH]c2ccccc12)C(=O)Nc1ccc(OC(F)(F)F)cc1)c1cccs1` (stereo not given), the IC50 in [22] is > 69.5 µM (inactive); in experiment [23], 11 µM (inactive).
